Measurements taken from PubChem BioAssay AID290 (DTP/NCI, 2004).
Several values for one entry are separate records, joined by “and”; a condition that tells them apart may be missing. Equal entries are not always repeated. Results filed as inconclusive are left out.

System: mice, P1798 lymphosarcoma sc, survival or tumor weight T/C
Assay: NCI In Vivo Anticancer Drug Screen. Data for tumor model P1798 Lymphosarcoma (subcutaneous) in unknown mice
Method: The antitumor activity of compounds was measured in mice bearing transplantable tumors. Survival or tumor size were measured and the results are expressed as the measurement made in the treated group (T) divided by the measurement made in the vehicle treated control group (C). The tumor model used in this assay is P1798 Lymphosarcoma (subcutaneous) in unknown mice

[1] = endpoint: mean tumor weight, dose: 12.5 mg/kg/injection, schedule: Q01DX010 (ip), vehicle: carboxymethylcellulose (CMC), higher = larger tumour
[2] = endpoint: mean tumor weight, dose: 25.0 mg/kg/injection, schedule: Q01DX010 (ip), vehicle: carboxymethylcellulose (CMC), higher = larger tumour

SMILES: C[C@]12C=CC(=O)C=C1CC[C@@H]1[C@@H]2C(=O)C[C@@]2(C)[C@H]1CC[C@]2(O)C(=O)CO
- T/C (endpoint: mean tumor weight, dose: 0.31 mg/kg/injection, schedule: Q01DX010 (sc), vehicle: steriod suspending solution, higher = larger tumour): 81 % of control
- T/C (endpoint: mean tumor weight, dose: 0.62 mg/kg/injection, schedule: Q01DX010 (sc), vehicle: steriod suspending solution, higher = larger tumour): 124 % of control
- T/C (endpoint: mean tumor weight, dose: 3.1 mg/kg/injection, schedule: Q01DX010 (sc), vehicle: steriod suspending solution, higher = larger tumour): 82 % of control
- T/C (endpoint: mean tumor weight, dose: 5.0 mg/kg/injection, schedule: Q01DX010 (sc), vehicle: steriod suspending solution, higher = larger tumour): 59 % of control
- T/C (endpoint: mean tumor weight, dose: 6.25 mg/kg/injection, schedule: Q01DX010 (sc), vehicle: steriod suspending solution, higher = larger tumour): 99 % of control
- T/C (endpoint: mean tumor weight, dose: 10.0 mg/kg/injection, schedule: Q01DX010 (sc), vehicle: steriod suspending solution, higher = larger tumour): 83 % of control
- T/C (endpoint: mean tumor weight, dose: 10.0 mg/kg/injection, schedule: Q01DX010 (sc), vehicle: water, higher = larger tumour): 105 % of control
- T/C (endpoint: mean tumor weight, dose: 20.0 mg/kg/injection, schedule: Q01DX010 (sc), vehicle: steriod suspending solution, higher = larger tumour): 68 % of control and 74 % of control
- T/C (endpoint: mean tumor weight, dose: 20.0 mg/kg/injection, schedule: Q01DX010 (sc), vehicle: water, higher = larger tumour): 108 % of control
- T/C (endpoint: mean tumor weight, dose: 40.0 mg/kg/injection, schedule: Q01DX010 (sc), vehicle: water, higher = larger tumour): 100 % of control
- T/C (endpoint: mean tumor weight, dose: 60.0 mg/kg/injection, schedule: Q01DX001 (sc), vehicle: steriod suspending solution, higher = larger tumour): 87 % of control
- T/C (endpoint: mean tumor weight, dose: 120.0 mg/kg/injection, schedule: Q01DX001 (sc), vehicle: steriod suspending solution, higher = larger tumour): 34 % of control
- T/C (endpoint: median survival time, dose: 2.34 mg/kg/injection, schedule: Q01DX029 (ip), vehicle: saline, higher = longer survival): 82 % of control
- T/C (endpoint: median survival time, dose: 4.67 mg/kg/injection, schedule: Q01DX025 (ip), vehicle: saline, higher = longer survival): 96 % of control
- T/C (endpoint: median survival time, dose: 9.35 mg/kg/injection, schedule: Q01DX025 (ip), vehicle: saline, higher = longer survival): 100 % of control
- T/C (endpoint: median survival time, dose: 9.35 mg/kg/injection, schedule: Q01DX029 (ip), vehicle: saline, higher = longer survival): 98 % of control
- T/C (endpoint: median survival time, dose: 9.37 mg/kg/injection, schedule: Q01DX029 (ip), vehicle: saline, higher = longer survival): 89 % of control
- T/C (endpoint: median survival time, dose: 18.7 mg/kg/injection, schedule: Q01DX025 (ip), vehicle: saline, higher = longer survival): 88 % of control
- T/C (endpoint: median survival time, dose: 18.75 mg/kg/injection, schedule: Q01DX010 (ip), vehicle: saline, higher = longer survival): 101 % of control
- T/C (endpoint: median survival time, dose: 37.5 mg/kg/injection, schedule: Q01DX025 (ip), vehicle: saline, higher = longer survival): 75 % of control
- T/C (endpoint: median survival time, dose: 75.0 mg/kg/injection, schedule: Q01DX010 (sc), vehicle: saline, higher = longer survival): 153 % of control
- T/C (endpoint: median survival time, dose: 75.0 mg/kg/injection, schedule: Q01DX025 (ip), vehicle: saline, higher = longer survival): 59 % of control
- T/C (endpoint: median survival time, dose: 150.0 mg/kg/injection, schedule: Q01DX010 (sc), vehicle: saline, higher = longer survival): 47 % of control
- T/C (endpoint: median survival time, dose: 150.0 mg/kg/injection, schedule: Q01DX025 (ip), vehicle: saline, higher = longer survival): 46 % of control
- T/C (endpoint: median survival time, dose: 150.0 mg/kg/injection, schedule: Q01DX029 (ip), vehicle: saline, higher = longer survival): 42 % of control
- T/C (endpoint: median survival time, dose: 300.0 mg/kg/injection, schedule: Q01DX010 (sc), vehicle: saline, higher = longer survival): 39 % of control
- T/C (endpoint: median survival time, dose: 600.0 mg/kg/injection, schedule: Q01DX010 (sc), vehicle: saline, higher = longer survival): 34 % of control

SMILES: O=C(O)CCCc1ccc(N(CCCl)CCCl)cc1
- T/C (endpoint: mean tumor weight, dose: 3.12 mg/kg/injection, schedule: Q01DX010 (ip), vehicle: carboxymethylcellulose (CMC), higher = larger tumour): 86 % of control
- T/C (endpoint: mean tumor weight, dose: 6.25 mg/kg/injection, schedule: Q01DX010 (ip), vehicle: carboxymethylcellulose (CMC), higher = larger tumour): 89 % of control
- T/C [1]: 104 % of control
- T/C [2]: 73 % of control

SMILES: O=c1[nH]c2cc(Cl)c(Cl)cc2o1
- T/C [1]: 78 % of control
- T/C [2]: 76 % of control
- T/C (endpoint: mean tumor weight, dose: 50.0 mg/kg/injection, schedule: Q01DX010 (ip), vehicle: carboxymethylcellulose (CMC), higher = larger tumour): 117 % of control
- T/C (endpoint: mean tumor weight, dose: 100.0 mg/kg/injection, schedule: Q01DX010 (ip), vehicle: carboxymethylcellulose (CMC), higher = larger tumour): 61 % of control

SMILES: C[C@@H]1C[C@@H]([C@H](O)CC2CC(=O)NC(=O)C2)C(=O)[C@@H](C)C1
- T/C (endpoint: mean tumor weight, dose: 1.6 mg/kg/injection, schedule: Q01DX010 (ip), vehicle: water, higher = larger tumour): 86 % of control
- T/C (endpoint: mean tumor weight, dose: 3.1 mg/kg/injection, schedule: Q01DX010 (ip), vehicle: water, higher = larger tumour): 96 % of control
- T/C (endpoint: mean tumor weight, dose: 6.3 mg/kg/injection, schedule: Q01DX010 (ip), vehicle: water, higher = larger tumour): 96 % of control
- T/C (endpoint: mean tumor weight, dose: 12.5 mg/kg/injection, schedule: Q01DX010 (ip), vehicle: water, higher = larger tumour): 98 % of control
